# Where a name gives a salt, the structure may show the parent alone. Numbered stars: 1 amine (or outer) side, 2 acyl side, 3 side chain; on linkers, the order of the positions; unused ones are H or OH. Peptide text beside a SMILES is read from it. * marks the point of attachment. pNA = O=[N+]([O-])c1ccc(N*)cc1; Suc = O=C(CCC(=O)[*:2])[*:1]; Cbz = O=C(OCc1ccccc1)*
# Legend:
# Format in all cases: biochemical, Fervidobacterium pennavorans
# [1] = system: proteolytic activity of raw extract of strain W; assay: Influence of metal ions on the proteolytic activity of the raw extract; conditions: 1 h room temperature with raw extract, then 1 h at 80° C. with 0.25 % substrate pH 10; for ca. % activity 1 mM: metal ion 1 mM; for ca. % activity 5 mM: metal ion 5 mM
# Protocol: Cells of a fermenter culture are macerated (approximately 1 g/20 ml Na-phosphate 50 mM pH 6.8 buffer) by ultrasound. (15 min, 50 %, stage (setting) 6-7, average sonication peak, Branson Sonifier). After microscopic control of successful maceration the raw extract is centrifuged for 20 min, 4° C., 35,000 xg. The supernatant obtained in this manner is used for the enzyme tests.
# (§1) 0.45 ml 0.25 % (w/v) casein solution (Hammersten Quality) in an appropriate B & R buffer (Britton & Robinson, J. Chem. Soc. (1931), p. 1456. A solution containing 0.4 M H3 PO4, 0.4M CH3 COOH and 0.4M H3 BO3 in water is adjusted to the desired pH with 0.2 N NaOH) is pipetted on ice with 0.05 ml enzyme-containing specimen into E-Cups and incubated, depending on the activity, up to 60 min at the optimal temperature for the enzyme (80° C.) and the optimal pH (10). The batch is then compounded for stopping off and precipitating the proteins with 0.5 ml 10 % (w/v) trichloroacetic acid (TCA), incubated for 15-30 min at room temperature and then centrifuged for 10 min at 13000 rpms in an Eppendorf centrifuge (Heraeus Sepatech, Osterode). The extinction of the clear supernatant is measured at 280 nm in a quartz cuvette against a non-incubated blank reading.
# (§2) In order to determine the enzyme activity, a tyrosine calibration curve is recorded in the range of 0-1 μM/batch. An enzyme activity (1 unit) is defined as that amount which released 1 μmole aromatic amino acids/min. The following computation results from the rise of the calibration curve: [formula] Production of the enzyme composition
# The metal ions are dissolved in a buffer, 50 mM Na--P; pH 6.8. 50 μl of this solution are incubated with 50 μl raw extract for 1 h at room temperature, then 400 μl substrate (0.25 %, pH 10) are added and incubated for 1 h at 80° C. TCA precipitation and determination of activity are carried out as described above.
# [2] = system: proteases of cell-free raw extract of strain W; assay: Hydrolysis of chromogenic peptide substrates by the proteases (E405 value); conditions: 17 hours at 60° C., 0.2 mM substrate in phosphate buffer pH 7, 0.3 mg/ml raw enzyme extract, measuring stretch 1 cm
# Protocol: The hydrolysis of chromogenic peptide substrates by proteases of the […] (E405 value)
# In order to determine the substrate specificity of the proteases the cited chromogenic peptide substrates are incubated in a final concentration of 0.2 mM together with cell-free raw extract.
# The incubation takes place below the temperature optimum and pH optimum of the proteases in order to avoid a thermal and pH-dependent, non-enzymatic hydrolysis of the peptide substrates.
# 900 μl 0.2 mM (w/v) substrate solution in 50 mM Na-P-buffer, pH 7.0
# 100 μl enzyme specimen incubation for 17 h at 60° C.
# The released p-nitroaniline is subsequently measured immediately against a non-incubated blank reading at an extinction of 405 nm.
# [3] = biological target: T1, proteases of the enzyme composition from microorganism strain W (Fervidobacterium pennivorans, UniProt Q93LQ6); assay: biochemical; conditions: for Residual act. (1 mM): inhibitor 1 mM; for remaining activity at 1000 µM / remaining activity at 5000 µM: 1 h; for remaining activity at 1000 µM: pH 10, read-out: Residual act. (1 mM); for remaining activity at 5000 µM: pH 10, read-out: Residual act. (5 mM)
# T1 construct: casein substrate, pH 10, 80 C
# T1 sequence (Q93LQ6 150-699): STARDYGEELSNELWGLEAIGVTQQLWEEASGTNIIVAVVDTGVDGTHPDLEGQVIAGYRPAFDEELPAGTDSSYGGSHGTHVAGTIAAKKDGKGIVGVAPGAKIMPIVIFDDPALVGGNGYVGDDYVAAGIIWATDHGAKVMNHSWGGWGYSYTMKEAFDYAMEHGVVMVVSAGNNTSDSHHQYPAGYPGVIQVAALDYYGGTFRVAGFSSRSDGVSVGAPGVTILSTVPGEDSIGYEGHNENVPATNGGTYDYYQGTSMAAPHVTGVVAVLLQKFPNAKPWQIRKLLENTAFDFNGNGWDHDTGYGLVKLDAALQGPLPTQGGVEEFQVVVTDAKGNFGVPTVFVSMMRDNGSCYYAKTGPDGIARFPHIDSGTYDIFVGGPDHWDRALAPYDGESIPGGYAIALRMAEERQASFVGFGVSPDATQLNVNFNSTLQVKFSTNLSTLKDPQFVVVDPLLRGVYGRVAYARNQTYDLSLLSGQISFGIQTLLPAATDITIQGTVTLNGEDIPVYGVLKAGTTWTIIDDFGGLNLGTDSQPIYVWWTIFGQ
# Protocol: as §1, §2
# Phenylmethylsulfonyl fluoride (PMSF) and diisopropylfluorophosphate (DFP) bond to the OH group of the serine in the active center of serine proteases and inhibit the latter irreversibly. Ethylene diamine tetraacetate Na2 salt (EDTA) is a metal chelating agent and inhibits metalloproteases.
# 470 μl 0.25 % (w/v) casein in […], pH 10--buffer (B & R)
# 5 μl inhibitor stock [strain]solution (see below)
# When using 5 μl inhibitor stock solution the final concentration corresponds to 1 mM. When using 25 μl inhibitor solution (final concentration 5 mM), only 450 μl substrate solution are accordingly used. The batches are at first incubated without substrate at room temperature (1 h) and then with substrate for 1 h at the temperature which is optimum for the enzyme.
# After the incubation the reaction is stopped with 500 μl of a 10 % (w/v) solution of trichloroacetic acid and the remaining activity determined as described above. The following inhibitor solutions are used:
# PMSF 17.3 % (w/v) in ethanol
# EDTA 3.56 % (w/v) in H2 O bidistillate
# Iodoacetate 14.4 % (w.v) in H2 O bidistillate
# [4] = 1 h preincubation at room temperature, then 1 h with casein, pH 10, optimum temperature, without inhibitor = 100%, approximate values
Compound,ca. % activity 1 mM [1] [%],ca. % activity 5 mM [1] [%],other results
[Na+].[Na+].[O]=[Mo](=[O])([O-])[O-] [NcMoO4],91,95,
[Na+].[Na+].[O]=[W](=[O])([O-])[O-] [NaWO4],75,134,
[Cl-].[Cl-].[Co+2] [CoCl2],143,187,
O=C(O)CCC(=O)N[C@@H](Cc1ccccc1)C(=O)Nc1ccc([N+](=O)[O-])cc1 [N-succinyl-Phe-pNA],,,E405 value (in comparison to blank value) [2]: > 0.5
AgCl2,0,0,
[Cl][Fe]([Cl])[Cl] [FeCl3],93,0,
[Cl-].[Cl-].[Zn+2] [ZnCl2],57,37,
[Cl][Ni][Cl] [NiCl2],72,44,
[Ca+2].[Cl-].[Cl-] [CaCl2],85,117,
O=S(=O)([O-])[O-].[O]=[V+2] [VOSO4],87,44,
CC(=O)N[C@@H](Cc1ccc(O)cc1)C(=O)Nc1ccc([N+](=O)[O-])cc1 [acetyl-Tyr-pNA],,,E405 value (in comparison to blank value) [2]: below 0.1
[Cl-].[Na+] [NaCl],86,116,
"O=S(=O)(F)Cc1ccccc1 [PMSF, Phenylmethylsulfonyl fluoride]",,,"Residual act. (1 mM) [3, 4]: 14%; Residual act. (5 mM) ([3]; inhibitor 5 mM, 1 h preincubation at room temperature, then 1 h with casein, pH 10, optimum temperature, without inhibitor = 100%, approximate values): 10%"
O=C(O)CI [Iodoacetate],,,remaining activity at 1000 µM [3]: 83%; remaining activity at 5000 µM [3]: 76%
NCCCC[C@H](NC(=O)c1ccccc1)C(=O)Nc1ccc([N+](=O)[O-])cc1 [benzoyl-Lys-pNA],,,E405 value (in comparison to blank value) [2]: below 0.1
N=C(N)NCCCC(NC(=O)c1ccccc1)C(=O)Nc1ccc([N+](=O)[O-])cc1 (racemic) [benzoyl-DL-Arg-pNA],,,E405 value (in comparison to blank value) [2]: below 0.1
[Cl][Cu][Cl] [CuCl2],17,0,
"O=C(O)CN(CCN(CC(=O)O)CC(=O)O)CC(=O)O [EDTA, Ethylene diamine tetraacetate Na2 salt]",,,remaining activity at 1000 µM [3]: 93%; remaining activity at 5000 µM [3]: 85%
[Cl][Fe][Cl] [FeCl2],127,0,
[Cl][Mn][Cl] [MnCl2],110,120,
C[C@H](NC(=O)CCC(=O)O)C(=O)N[C@@H](C)C(=O)N1CCC[C@H]1C(=O)N[C@@H](Cc1ccccc1)C(=O)Nc1ccc([N+](=O)[O-])cc1 [N-succinyl-Ala-Ala-Pro-Phe-pNA] (Suc-AAPF-pNA),,,E405 value (in comparison to blank value) [2]: > 0.5
[Cl-].[Cl-].[Mg+2] [MgCl2],171,125,
O=[Se]([O-])[O-].[Na+].[Na+] [NaSe2 O3],96,136,
O=C(NCC(=O)N1CCC[C@H]1C(=O)Nc1ccc([N+](=O)[O-])cc1)OCc1ccccc1 [Z-Gly-Pro-pNA] (Cbz-Gly-Pro-pNA),,,E405 value (in comparison to blank value) [2]: below 0.1
NCCc1ccc(S(=O)(=O)F)cc1 [Pefabloc SC],,,"Residual act. (1 mM) [3, 4]: 83%"

# From patent US5569599A, “Kerainase from fervidobacterium pennavorans DSM 7003” (Degussa Aktiengesellschaft, priority 1992, dated 1996)
